The supplement of paper PMC11451515

System: P12-Ichikawa
Assay: cell viability relative to DMSO control; higher = less cytotoxic
Settings: 48 h
Outline: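 Viability is a per-plate percentage relative to DMSO wells, with cell-free wells as background. CellTiter-Glo One luminescence was read after 48 h at 37°C on 1536-well plates (5 μl) of NOMO1 or SEM (500 cells/well) or P12-Ichikawa (1000 cells/well) leukemia cells. The cells had been adapted for at least four passages in each medium and pin-dosed with library compounds in DMSO from 47 μM to 0.79 nM in 11 threefold steps.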

[1] = HPLM + 10% dialyzed FBS, 0.000781 µM
[2] = HPLM + 10% dialyzed FBS, 0.00234 µM
[3] = HPLM + 10% dialyzed FBS, 0.00702 µM
[4] = HPLM + 10% dialyzed FBS, 0.0211 µM
[5] = HPLM + 10% dialyzed FBS, 0.0632 µM
[6] = HPLM + 10% dialyzed FBS, 0.19 µM
[7] = HPLM + 10% dialyzed FBS, 0.569 µM
[8] = HPLM + 10% dialyzed FBS, 1.71 µM
[9] = HPLM + 10% dialyzed FBS, 5.12 µM
[10] = HPLM + 10% dialyzed FBS, 15.4 µM
[11] = HPLM + 10% dialyzed FBS, 46.1 µM
[12] = RPMI 5 mM glucose + 10% FBS, 0.000781 µM
[13] = RPMI 5 mM glucose + 10% FBS, 0.00234 µM
[14] = RPMI 5 mM glucose + 10% FBS, 0.00702 µM
[15] = RPMI 5 mM glucose + 10% FBS, 0.0211 µM
[16] = RPMI 5 mM glucose + 10% FBS, 0.0632 µM
[17] = RPMI 5 mM glucose + 10% FBS, 0.19 µM
[18] = RPMI 5 mM glucose + 10% FBS, 0.569 µM
[19] = RPMI 5 mM glucose + 10% FBS, 1.71 µM
[20] = RPMI 5 mM glucose + 10% FBS, 5.12 µM
[21] = RPMI 5 mM glucose + 10% FBS, 15.4 µM
[22] = RPMI 5 mM glucose + 10% FBS, 46.1 µM
[23] = RPMI 5 mM glucose + 10% dialyzed FBS, 0.000781 µM
[24] = RPMI 5 mM glucose + 10% dialyzed FBS, 0.00234 µM
[25] = RPMI 5 mM glucose + 10% dialyzed FBS, 0.00702 µM
[26] = RPMI 5 mM glucose + 10% dialyzed FBS, 0.0211 µM
[27] = RPMI 5 mM glucose + 10% dialyzed FBS, 0.0632 µM
[28] = RPMI 5 mM glucose + 10% dialyzed FBS, 0.19 µM
[29] = RPMI 5 mM glucose + 10% dialyzed FBS, 0.569 µM
[30] = RPMI 5 mM glucose + 10% dialyzed FBS, 1.71 µM
[31] = RPMI 5 mM glucose + 10% dialyzed FBS, 5.12 µM
[32] = RPMI 5 mM glucose + 10% dialyzed FBS, 15.4 µM
[33] = RPMI 5 mM glucose + 10% dialyzed FBS, 46.1 µM

NC/1=N/C(=O)N(/C=N1)[C@@H]2O[C@H](CO)[C@@H](O)[C@H]2O
cell viability [1]: 108%
cell viability [2]: 104%
cell viability [3]: 102%
cell viability [4]: 107%
cell viability [5]: 85.2%
cell viability [6]: 114%
cell viability [7]: 104%
cell viability [8]: 109%
cell viability [9]: 77%
cell viability [10]: 55.1%
cell viability [11]: 22.6%
cell viability [12]: 107%
cell viability [13]: 102%
cell viability [14]: 102%
cell viability [15]: 98.7%
cell viability [16]: 88.1%
cell viability [17]: 113%
cell viability [18]: 104%
cell viability [19]: 107%
cell viability [20]: 91.1%
cell viability [21]: 59%
cell viability [22]: 43.2%
cell viability [23]: 97.1%
cell viability [24]: 107%
cell viability [25]: 114%
cell viability [26]: 116%
cell viability [27]: 94.7%
cell viability [28]: 103%
cell viability [29]: 105%
cell viability [30]: 104%
cell viability [31]: 89.6%
cell viability [32]: 56%
cell viability [33]: 26.8%

CON(C)C(=O)N1/N=C(S[C@@]1(CCCN)C2=CC=CC=C2)/C3=CC(=CC=C3F)F
cell viability [1]: 102%
cell viability [2]: 118%
cell viability [3]: 122%
cell viability [4]: 83.1%
cell viability [5]: 12.1%
cell viability [6]: 10.6%
cell viability [7]: 10.1%
cell viability [8]: 10.1%
cell viability [9]: 9%
cell viability [10]: 11.4%
cell viability [11]: 10.7%
cell viability [12]: 101%
cell viability [13]: 114%
cell viability [14]: 123%
cell viability [15]: 61.1%
cell viability [16]: 13.7%
cell viability [17]: 12.6%
cell viability [18]: 14.3%
cell viability [19]: 10.8%
cell viability [20]: 8.36%
cell viability [21]: 9.67%
cell viability [22]: 11.1%

O.O.CCN1CCN(C(=O)N[C@H](C(=O)N[C@H]2[C@@H]3SC\C(=C(/N3C2=O)C(O)=O)CSC4=NN=N[N]4C)C5=CC=C(O)C=C5)C(=O)C1=O
cell viability [1]: 92.1%
cell viability [2]: 102%
cell viability [3]: 103%
cell viability [4]: 11.8%
cell viability [5]: 105%
cell viability [6]: 103%
cell viability [7]: 112%
cell viability [8]: 95.9%
cell viability [9]: 106%
cell viability [10]: 108%
cell viability [11]: 108%
cell viability [12]: 86.8%
cell viability [13]: 99.4%
cell viability [14]: 90.8%
cell viability [15]: 12.4%
cell viability [16]: 103%
cell viability [17]: 100%
cell viability [18]: 112%
cell viability [19]: 96.9%
cell viability [20]: 98.7%
cell viability [21]: 99.6%
cell viability [22]: 105%
cell viability [23]: 84.8%
cell viability [24]: 88%
cell viability [25]: 98.1%
cell viability [26]: 22.6%
cell viability [27]: 102%
cell viability [28]: 101%
cell viability [29]: 93.3%
cell viability [30]: 97.4%
cell viability [31]: 97.7%
cell viability [32]: 102%
cell viability [33]: 99.5%

NC(=O)c1ncn([C@@H]2O[C@H](CO)[C@@H](O)[C@H]2O)c1O
cell viability [12]: 129%
cell viability [13]: 123%
cell viability [14]: 119%
cell viability [15]: 130%
cell viability [16]: 124%
cell viability [17]: 126%
cell viability [18]: 133%
cell viability [19]: 123%
cell viability [20]: 111%
cell viability [21]: 117%
cell viability [22]: 108%
cell viability [23]: 118%
cell viability [24]: 126%
cell viability [25]: 113%
cell viability [26]: 123%
cell viability [27]: 122%
cell viability [28]: 121%
cell viability [29]: 123%
cell viability [30]: 122%
cell viability [31]: 109%
cell viability [32]: 110%
cell viability [33]: 104%

OC(CN1CCN(c2cccc(Cl)c2)CC1)C(c1ccccc1)c1ccccc1 (configuration not stated)
cell viability [1]: 109%
cell viability [2]: 114%
cell viability [3]: 119%
cell viability [4]: 111%
cell viability [5]: 120%
cell viability [6]: 23.4%
cell viability [7]: 17.3%
cell viability [8]: 4.64%
cell viability [9]: 4.77%
cell viability [10]: 4.92%
cell viability [11]: 5.05%
cell viability [12]: 112%
cell viability [13]: 117%
cell viability [14]: 114%
cell viability [15]: 115%
cell viability [16]: 123%
cell viability [17]: 126%
cell viability [18]: 114%
cell viability [19]: 7.71%
cell viability [20]: 6.13%
cell viability [21]: 5.76%
cell viability [22]: 5.28%
cell viability [23]: 102%
cell viability [24]: 112%
cell viability [25]: 111%
cell viability [26]: 112%
cell viability [27]: 118%
cell viability [28]: 105%
cell viability [29]: 84.9%
cell viability [30]: 4.96%
cell viability [31]: 5.14%
cell viability [32]: 4.91%
cell viability [33]: 4.74%

O=C(/C=C/c1ccc(O)cc1)c1ccc(O)cc1O
cell viability [1]: 108%
cell viability [2]: 98.4%
cell viability [3]: 95%
cell viability [4]: 109%
cell viability [5]: 106%
cell viability [6]: 104%
cell viability [7]: 103%
cell viability [8]: 95.9%
cell viability [9]: 99.6%
cell viability [10]: 87.8%
cell viability [11]: 43.1%
cell viability [12]: 108%
cell viability [13]: 103%
cell viability [14]: 110%
cell viability [15]: 105%
cell viability [16]: 111%
cell viability [17]: 108%
cell viability [18]: 98.3%
cell viability [19]: 98.5%
cell viability [20]: 107%
cell viability [21]: 65.9%
cell viability [22]: 11.7%
cell viability [23]: 105%
cell viability [24]: 101%
cell viability [25]: 109%
cell viability [26]: 106%
cell viability [27]: 119%
cell viability [28]: 113%
cell viability [29]: 104%
cell viability [30]: 97.3%
cell viability [31]: 95.5%
cell viability [32]: 41.8%
cell viability [33]: 9.51%

C[C@](N)(Cc1ccc(O)c(O)c1)C(=O)O
cell viability [1]: 95.1%
cell viability [2]: 90.6%
cell viability [3]: 91.4%
cell viability [4]: 96.8%
cell viability [5]: 102%
cell viability [6]: 87.7%
cell viability [7]: 77%
cell viability [8]: 90.4%
cell viability [9]: 87.8%
cell viability [10]: 81.2%
cell viability [11]: 84.8%
cell viability [12]: 90.8%
cell viability [13]: 93.3%
cell viability [14]: 87.2%
cell viability [15]: 89.3%
cell viability [16]: 93.3%
cell viability [17]: 92.9%
cell viability [18]: 83.2%
cell viability [19]: 81.1%
cell viability [20]: 81%
cell viability [21]: 80.8%
cell viability [22]: 84.9%
cell viability [23]: 85.1%
cell viability [24]: 85.1%
cell viability [25]: 83.5%
cell viability [26]: 88.2%
cell viability [27]: 89.3%
cell viability [28]: 82.1%
cell viability [29]: 82.5%
cell viability [30]: 81.8%
cell viability [31]: 76.1%
cell viability [32]: 81.8%
cell viability [33]: 81.4%

CCCC1OC2C[C@H]3[C@@H]4CCC5=CC(=O)C=C[C@]5(C)[C@H]4C(O)C[C@]3(C)[C@]2(C(=O)CO)O1 (some centres not stated)
cell viability [1]: 114%
cell viability [2]: 120%
cell viability [3]: 109%
cell viability [4]: 95.8%
cell viability [5]: 79%
cell viability [6]: 68.7%
cell viability [7]: 67.3%
cell viability [8]: 64%
cell viability [9]: 64.9%
cell viability [10]: 60%
cell viability [11]: 49%
cell viability [12]: 116%
cell viability [13]: 114%
cell viability [14]: 99.1%
cell viability [15]: 90%
cell viability [16]: 70.6%
cell viability [17]: 57.8%
cell viability [18]: 57.6%
cell viability [19]: 50.1%
cell viability [20]: 51.2%
cell viability [21]: 51.3%
cell viability [22]: 39.7%
cell viability [23]: 116%
cell viability [24]: 108%
cell viability [25]: 90.4%
cell viability [26]: 76.7%
cell viability [27]: 60%
cell viability [28]: 47.5%
cell viability [29]: 44.1%
cell viability [30]: 43%
cell viability [31]: 42%
cell viability [32]: 37.5%
cell viability [33]: 28.4%
